Results reported in ChEMBL document CHEMBL2407028, “Discovery of novel oxazolidinedione derivatives as potent and selective mineralocorticoid receptor antagonists” (Bioorg Med Chem Lett, 2013).

target: T1, Mineralocorticoid receptor (Homo sapiens, UniProt P08235); assay: Antagonist activity at human mineralocorticoid receptor assessed as inhibition of binding to coactivator peptide by NH Pro assay
T1 sequence (P08235 whole entry): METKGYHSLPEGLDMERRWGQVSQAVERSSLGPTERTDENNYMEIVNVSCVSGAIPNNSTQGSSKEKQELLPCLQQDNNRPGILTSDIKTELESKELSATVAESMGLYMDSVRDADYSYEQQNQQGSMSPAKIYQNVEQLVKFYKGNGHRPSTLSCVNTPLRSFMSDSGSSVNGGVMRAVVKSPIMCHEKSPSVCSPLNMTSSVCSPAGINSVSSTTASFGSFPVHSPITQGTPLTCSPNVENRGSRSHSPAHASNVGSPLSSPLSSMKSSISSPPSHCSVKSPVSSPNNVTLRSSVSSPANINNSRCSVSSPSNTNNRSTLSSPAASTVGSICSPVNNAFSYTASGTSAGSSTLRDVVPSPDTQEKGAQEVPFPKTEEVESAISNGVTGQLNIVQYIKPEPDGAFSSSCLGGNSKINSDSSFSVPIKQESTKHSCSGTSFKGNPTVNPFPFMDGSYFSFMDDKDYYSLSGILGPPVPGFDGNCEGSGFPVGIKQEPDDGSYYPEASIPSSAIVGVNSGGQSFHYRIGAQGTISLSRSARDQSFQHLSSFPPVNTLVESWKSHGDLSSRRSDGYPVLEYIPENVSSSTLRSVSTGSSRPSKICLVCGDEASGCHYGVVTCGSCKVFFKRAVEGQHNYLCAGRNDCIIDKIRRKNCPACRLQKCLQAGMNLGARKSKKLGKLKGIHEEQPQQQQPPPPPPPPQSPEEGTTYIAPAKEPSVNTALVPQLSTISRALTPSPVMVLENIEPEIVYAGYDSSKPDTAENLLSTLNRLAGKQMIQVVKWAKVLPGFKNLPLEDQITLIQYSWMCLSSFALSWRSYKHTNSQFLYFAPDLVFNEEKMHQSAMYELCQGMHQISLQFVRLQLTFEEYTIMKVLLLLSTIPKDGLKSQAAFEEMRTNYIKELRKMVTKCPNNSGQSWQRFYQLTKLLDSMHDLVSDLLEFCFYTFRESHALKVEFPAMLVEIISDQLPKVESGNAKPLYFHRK

| SMILES | IC50 |
| --- | --- |
| C[C@H](c1ccccc1)N1C(=O)O[C@](Cc2ccccc2)(C(=O)NCc2ccc(C(F)(F)F)cc2)C1=O | 570 nM |
| C[C@H](c1ccccc1)N1C(=O)O[C@](Cc2ccccc2)(C(=O)NCc2cccc(C(F)(F)F)c2)C1=O | 500 nM |
| C[C@H](c1ccccc1)N1C(=O)O[C@](Cc2ccccc2)(C(=O)N2CCc3ccccc3C2)C1=O | 340 nM |
| C[C@H](c1ccccc1)N1C(=O)O[C@](Cc2ccccc2)(C(=O)NCc2ccc3ccccc3n2)C1=O | 2500 nM |
| C[C@H](c1ccccc1)N1C(=O)O[C@](Cc2ccccc2)(C(=O)Nc2ccc(C#N)cc2)C1=O | 100 nM |
| C[C@H](c1ccccc1)N1C(=O)O[C@](Cc2ccccc2)(C(=O)N[C@H]2C[C@@H](c3ccccc3)C2)C1=O | 650 nM |
| C[C@H](c1ccccc1)N1C(=O)O[C@](Cc2ccccc2)(C(=O)NCc2cccc3cnccc23)C1=O | 3000 nM |
| C[C@H](c1ccccc1)N1C(=O)O[C@](Cc2ccccc2)(C(=O)NCc2ccccn2)C1=O | 16000 nM |
| C[C@H](c1ccccc1)N1C(=O)O[C@](Cc2ccccc2)(C(=O)Nc2ccc(F)cc2)C1=O | 100 nM |
| COc1cc(CNC(=O)[C@H]2OC(=O)N(Cc3ccccc3)C2=O)cc(OC)c1 | > 40000 nM |
| COc1cc(CNC(=O)[C@@]2(Cc3ccccc3)OC(=O)N(C3CCN(C(=O)C(F)(F)F)CC3)C2=O)cc(OC)c1 | 2900 nM |
| C[C@H](c1ccccc1)N1C(=O)N[C@](Cc2ccccc2)(C(=O)N2CCc3ccccc3C2)C1=O | 990 nM |
| C[C@H](c1ccccc1)N1C(=O)O[C@](Cc2ccccc2)(C(=O)NCCc2cn[nH]c2)C1=O | > 40000 nM |
| C[C@H](c1ccc(F)cc1)N1C(=O)O[C@](Cc2ccccc2)(C(=O)Nc2ccc(Cl)cc2)C1=O | 180 nM |
| C[C@H](c1ccccc1)N1C(=O)O[C@](Cc2ccccc2)(C(=O)NCc2ccc(S(C)(=O)=O)cc2)C1=O | > 10000 nM |
| COc1cccc(CNC(=O)[C@@]2(Cc3ccccc3)OC(=O)N(Cc3ccccc3)C2=O)c1 | 1000 nM |
| C[C@H](c1ccccc1)N1C(=O)O[C@](Cc2ccccc2)(C(=O)NCCc2nnc[nH]2)C1=O | > 40000 nM |
| C[C@H](c1ccccc1)N1C(=O)O[C@](Cc2ccccc2)(C(=O)Nc2cccc(F)c2)C1=O | 300 nM |
| C[C@H](c1ccccc1)N1C(=O)O[C@](Cc2ccccc2)(C(=O)NC2CC2)C1=O | 2000 nM |
| C[C@H](c1ccccc1)N1C(=O)O[C@](Cc2ccccc2)(C(=O)NCCc2ccccn2)C1=O | 15000 nM |
| C[C@H](c1ccc(F)cc1)N1C(=O)O[C@](Cc2ccccc2)(C(=O)Nc2ccccc2)C1=O | 270 nM |
| C[C@H](c1ccccc1)N1C(=O)O[C@](Cc2ccccc2)(C(=O)N[C@@H]2C[C@H]2c2ccccc2)C1=O | 250 nM |
| C[C@H](c1ccccc1)N1C(=O)O[C@](Cc2ccccc2)(C(=O)NC2CCC2)C1=O | 1200 nM |
| C[C@H](c1ccccc1)N1C(=O)O[C@](Cc2ccccc2)(C(=O)Nc2ccccc2Cl)C1=O | 1000 nM |
| O=C1O[C@](Cc2ccccc2)(C(=O)NCc2nccs2)C(=O)N1Cc1ccccc1 | > 40000 nM |
| C[C@H](c1ccccc1)N1C(=O)O[C@](Cc2ccccc2)(C(=O)N[C@H](C)c2cccc(Cl)c2)C1=O | 400 nM |
| C[C@H](c1ccccc1)N1C(=O)O[C@](Cc2ccccc2)(C(=O)Nc2ccc3ccccc3c2)C1=O | 600 nM |
| C[C@H](NC(=O)[C@@]1(Cc2ccccc2)OC(=O)N([C@H](C)c2ccccc2)C1=O)c1cccc(Cl)c1 | 2600 nM |
| C[C@H](c1ccccc1)N1C(=O)O[C@](Cc2ccccc2)(C(=O)NC2CCCCC2)C1=O | 4000 nM |

Now from value to compound:

| IC50 | SMILES |
| --- | --- |
| 200 nM | COc1cc(CNC(=O)[C@@]2(Cc3ccc(F)cc3)OC(=O)N([C@H](C)c3ccccc3)C2=O)cc(OC)c1 |
| 750 nM | COc1cc(CNC(=O)[C@@]2(Cc3cccc(Cl)c3)OC(=O)N([C@H](C)c3ccccc3)C2=O)cc(OC)c1 |
| > 40000 nM | COc1cc(CNC(=O)C2(Cc3ccccc3)CC(=O)N([C@H](C)c3ccccc3)C2=O)cc(OC)c1 (stereo not given in full) |
| > 40000 nM | C[C@H](c1ccccc1)N1C(=O)O[C@](Cc2ccccc2)(C(=O)NCc2ccncc2)C1=O |
| > 10000 nM | CCn1cc(CNC(=O)[C@@]2(Cc3ccccc3)OC(=O)N([C@H](C)c3ccccc3)C2=O)cn1 |
| 200 nM | C[C@H](c1ccccc1)N1C(=O)O[C@](Cc2ccccc2)(C(=O)NCc2ccc(Cl)cc2)C1=O |
| 400 nM | CC[C@H](c1ccccc1)N1C(=O)O[C@](Cc2ccccc2)(C(=O)NCc2cc(OC)cc(OC)c2)C1=O |
| 280 nM | COc1cc(CNC(=O)[C@@]2(Cc3cccc(F)c3)OC(=O)N([C@H](C)c3ccccc3)C2=O)cc(OC)c1 |
| > 40000 nM | COc1cc(CNC(=O)C2(Cc3ccccc3)CCN(Cc3ccccc3)C2)cc(OC)c1 (stereo not given) |
| 500 nM | COc1ccccc1CNC(=O)[C@@]1(Cc2ccccc2)OC(=O)N([C@H](C)c2ccccc2)C1=O |
| 500 nM | COc1cc(CNC(=O)[C@@]2(Cc3ccccc3)OC(=O)N(C(C)C)C2=O)cc(OC)c1 |
| 14 nM | COc1cc(CNC(=O)[C@@]2(Cc3ccccc3)OC(=O)N([C@H](C)C3CCCCC3)C2=O)cc(OC)c1 |
| > 40000 nM | COc1cc(CNC(=O)[C@@]2(Cc3ccc4ccccc4c3)OC(=O)N([C@H](C)c3ccccc3)C2=O)cc(OC)c1 |
| > 40000 nM | COc1cc(CNC(=O)[C@@]2(Cc3ccc(Cl)cc3)OC(=O)N([C@H](C)c3ccccc3)C2=O)cc(OC)c1 |
| 1500 nM | C[C@H](c1ccccc1)N1C(=O)O[C@](Cc2ccccc2)(C(=O)NCc2ccc3cnccc3c2)C1=O |
| 300 nM | COc1cccc(CNC(=O)[C@@]2(Cc3ccccc3)OC(=O)N([C@H](C)c3ccccc3)C2=O)c1 |

| IC50 | SMILES |
| --- | --- |
| 30000 nM | COc1cc(CNC(=O)[C@@]2(Cc3ccncc3)OC(=O)N(Cc3ccccc3)C2=O)cc(OC)c1 |
| 280 nM | C[C@H](c1ccccc1)N1C(=O)O[C@](Cc2ccccc2)(C(=O)NCc2cccc(Cl)c2)C1=O |
| 1000 nM | COc1ccc(CNC(=O)[C@@]2(Cc3ccccc3)OC(=O)N([C@H](C)c3ccccc3)C2=O)cc1 |
| > 40000 nM | COc1cc(CNC(=O)[C@@]2(Cc3cccc4nonc34)OC(=O)N([C@H](C)c3ccccc3)C2=O)cc(OC)c1 |
| 3000 nM | COc1cc(CNC(=O)[C@@]2(Cc3ccccc3)OC(=O)N(Cc3ccccc3)C2=O)cc(OC)c1 |
| 37 nM | COc1cc(CNC(=O)[C@@]2(Cc3ccccc3)OC(=O)N([C@H](C)c3ccc(F)cc3)C2=O)cc(OC)c1 |
| 13000 nM | C[C@H](c1ccccc1)N1C(=O)O[C@](Cc2ccccc2)(C(=O)NCc2cccnc2)C1=O |
| > 40000 nM | COc1cc(CNC(=O)[C@@]2(Cc3ccc4nonc4c3)OC(=O)N([C@H](C)c3ccccc3)C2=O)cc(OC)c1 |
| 3000 nM | COc1cc(CNC(=O)[C@@]2(Cc3ccccn3)OC(=O)N([C@H](C)c3ccccc3)C2=O)cc(OC)c1 |
| 3000 nM | Cc1cc(CNC(=O)[C@@]2(Cc3ccccc3)OC(=O)N([C@H](C)c3ccccc3)C2=O)on1 |
| > 40000 nM | COc1cc(CNC(=O)C2(Cc3ccccc3)CN(Cc3ccccc3)C(=O)O2)cc(OC)c1 (stereo not given) |
| 55 nM | COc1cc(CNC(=O)[C@@]2(Cc3ccccc3)OC(=O)N([C@H](C)c3ccc(Cl)cc3)C2=O)cc(OC)c1 |
| > 40000 nM | COc1cc(CNC(=O)[C@@]2(Cc3ccccc3)NC(=O)N(Cc3ccccc3)C2=O)cc(OC)c1 |
| 300 nM | COc1cc(CNC(=O)[C@@]2(Cc3ccccc3F)OC(=O)N([C@H](C)c3ccccc3)C2=O)cc(OC)c1 |
| 450 nM | COc1cc(CNC(=O)[C@@]2(Cc3ccccc3Cl)OC(=O)N([C@H](C)c3ccccc3)C2=O)cc(OC)c1 |
